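In this assay, cells in 96-well plates receive the compound at five concentrations for 48 hours. Endpoints are linearly interpolated between the surrounding concentrations. GI50 marks 50% less growth. TGI: total growth inhibition.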
Tests used:
Test in all cases: DTP human tumour cell line panel, 48 h
[1] = system: A498 renal
[2] = system: ACHN renal
[3] = system: HCT-116 colon
[4] = system: HCT-15 colon
[5] = system: HOP-92 NSCLC
[6] = system: KM12 colon
[7] = system: NCI-H226 lung
[8] = system: UO-31 renal
[9] = system: CCRF-CEM leukemia
[10] = system: MALME-3M melanoma

In the case of C/C1=C\C/C=C(\C)[C@H]2CC(CC/C(C)=C/CC1)[C@](C)(C=O)O2, the GI50 [1] is reported as 92.2 µM, the TGI [1] is reported as over 100 µM and the GI50 [2] is reported as over 100 µM. The TGI [2] was over 100 µM, the GI50 [3] was 6.03 µM and the TGI [3] was over 100 µM. The GI50 [4] was over 100 µM, the TGI [4] was over 100 µM and the GI50 [5] was 39.8 µM. The TGI [5] was over 100 µM, the GI50 [6] was over 100 µM and the TGI [6] was over 100 µM. For the same molecule, the GI50 [7] was over 100 µM, the TGI [7] was over 100 µM and the GI50 [8] was over 100 µM. For the same molecule, the TGI [8] was over 100 µM.
c1ccc2cc(Cn3c[n+](Cc4ccc5ccccc5c4)c4ccccc43)ccc2c1 was tested, and the GI50 [1] was 1.08 µM, the TGI [1] was 2.5 µM and the GI50 [2] was 1.94 µM. It also gave a TGI [2] of 4 µM, a GI50 [5] of 0.192 µM and a TGI [5] of 1.57 µM. For the same molecule, the GI50 [6] was 1.54 µM, the TGI [6] was 3.15 µM and the GI50 [8] was 1.74 µM. The TGI [8] was 4.62 µM.
COc1ccc2c(c1)cn1c3ccc(O)cc3[nH]c(=O)c21 showed a GI50 [1] of 0.377 µM, a TGI [1] of 20.7 µM and a GI50 [2] of 0.112 µM. The TGI [2] was 1.99 µM, the GI50 [9] was 0.149 µM and the TGI [9] was 4.66 µM. It also gave a GI50 [3] of 0.0567 µM, a TGI [3] of 1.61 µM and a GI50 [4] of 0.111 µM. The TGI [4] was 2.21 µM, the GI50 [5] was 2.53 µM and the TGI [5] was 18.2 µM. It also gave a GI50 [6] of 0.329 µM, a TGI [6] of 5.39 µM and a GI50 [7] of 0.181 µM. The TGI [7] was 6.92 µM, the GI50 [8] was 0.264 µM and the TGI [8] was 13.1 µM.
For CC(=O)[C-](C(C)=O)c1ccccc1.CC(=O)[C-](C(C)=O)c1ccccc1.CC[O-].CC[O-].[Ti+4], the GI50 [2] was over 100 µM, the TGI [2] was over 100 µM and the GI50 [3] was over 100 µM. For the same molecule, the TGI [3] was over 100 µM, the GI50 [4] was over 100 µM and the TGI [4] was over 100 µM. For the same molecule, the GI50 [5] was over 100 µM, the TGI [5] was over 100 µM and the GI50 [6] was over 100 µM. For the same molecule, the TGI [6] was over 100 µM, the GI50 [10] was over 100 µM and the TGI [10] was over 100 µM. The GI50 [7] was over 100 µM, the TGI [7] was over 100 µM and the GI50 [8] was over 100 µM. For the same molecule, the TGI [8] was over 100 µM.
CCCCCCCCCCCC(=O)c1c(O)cccc1O was tested, and the TGI [2] was 33.8 µM, the TGI [9] was 62.8 µM and the TGI [3] was 33.1 µM. The TGI [4] was 33.4 µM, the TGI [5] was 32.3 µM and the TGI [6] was 30 µM. It also gave a TGI [10] of 29.5 µM, a TGI [7] of 34.7 µM and a TGI [8] of 30.2 µM.
With CNC(=O)OC1C(O[C@H]2C[C@H]3[C@@H]4CC=C5C[C@@H](O)CC[C@]5(C)[C@H]4CC[C@]3(C)[C@H]2[C@H](C)C(=O)CCC(C)C)OCC(O)C1OC1OCC(O)C(O)C1OC(=O)c1ccc(OC)cc1 (stereo partly drawn) the GI50 [1] was 0.00446 µM, the TGI [1] was 0.0205 µM and the GI50 [2] was 0.263 µM. The TGI [2] was 5.13 µM, the GI50 [9] was 0.00566 µM and the TGI [9] was 0.0373 µM. The GI50 [3] was 0.0129 µM, the TGI [3] was 3.11 µM and the GI50 [4] was 0.677 µM. It also gave a TGI [4] of 4.01 µM, a GI50 [5] of 0.0209 µM and a TGI [5] of 3.1 µM. For the same molecule, the GI50 [6] was 0.106 µM, the TGI [6] was 4.97 µM and the GI50 [10] was 0.0517 µM. It also gave a TGI [10] of 2.33 µM, a GI50 [8] of 0.0766 µM and a TGI [8] of 0.241 µM.
Work on COc1ccc(C(=O)C(C(=O)C(=O)Nc2nccs2)c2ccc(OC)cc2)cc1 (stereo not drawn) yielded a TGI [1] of over 100 µM, a TGI [2] of over 100 µM and a TGI [9] of over 100 µM. The TGI [3] was over 100 µM, the TGI [4] was over 100 µM and the TGI [5] was over 100 µM. It also gave a TGI [6] of over 100 µM, a TGI [10] of over 100 µM and a TGI [8] of over 100 µM.
With COc1cc(Cl)c2c3c(c(C(=O)c4ccccc4)oc13)CCC2 the TGI [1] was over 100 µM, the TGI [2] was over 100 µM and the TGI [9] was over 100 µM. It also gave a TGI [3] of over 100 µM and a TGI [4] of over 100 µM.
With [C-]#[N+][C@]12C(=O)[C@H](CCC1(C)C)C(C)(C)[C@H]1C(=O)N(C)c3cccc2c31 the GI50 [1] was 0.81 µM, the TGI [1] was 74.2 µM and the GI50 [2] was 80.7 µM. For the same molecule, the TGI [2] was over 100 µM, the GI50 [9] was 5.84 µM and the TGI [9] was over 100 µM. For the same molecule, the GI50 [3] was 3.73 µM, the TGI [3] was over 100 µM and the GI50 [4] was 58.5 µM. It also gave a TGI [4] of over 100 µM, a GI50 [5] of 3.11 µM and a TGI [5] of over 100 µM. The GI50 [6] was 9.99 µM, the TGI [6] was over 100 µM and the GI50 [7] was over 100 µM. For the same molecule, the TGI [7] was over 100 µM.
Molecule OCC#Cc1ccccc1C#Cc1ccc(C#Cc2ccccc2C#CCO)s1 has a GI50 [2] of 19.1 µM, a TGI [2] of 43.3 µM and a GI50 [3] of 24.2 µM. It also gave a TGI [3] of 50.1 µM, a GI50 [4] of 25.3 µM and a TGI [4] of 91.1 µM. The GI50 [5] was 15.6 µM, the TGI [5] was 29.7 µM and the GI50 [6] was 15.1 µM. For the same molecule, the TGI [6] was 30.6 µM, the GI50 [8] was 18.1 µM and the TGI [8] was 36 µM.
Work on c1cc(-c2cn[nH]c2)cc(-c2cn[nH]c2)c1 yielded a TGI [1] of 89.7 µM, a TGI [9] of over 100 µM and a TGI [3] of 49.4 µM. The TGI [4] was 96.4 µM, the TGI [5] was over 100 µM and the TGI [6] was over 100 µM. For the same molecule, the TGI [8] was 58.4 µM.
Work on Cc1nc(Nc2ccccc2)sc1C(=O)NNc1ccc([N+](=O)[O-])cc1[N+](=O)[O-] yielded a TGI [2] of over 100 µM, a TGI [9] of 58.2 µM and a TGI [3] of over 100 µM. The TGI [4] was over 100 µM, the TGI [6] was over 100 µM and the TGI [10] was over 100 µM. The TGI [7] was over 100 µM and the TGI [8] was over 100 µM.
Work on CCCCCCNc1nc(N2CCOCC2)c2[nH]c(NCCCCCC)nc2n1 yielded a GI50 [1] of 1.11 µM, a TGI [1] of 2.31 µM and a GI50 [2] of 1.6 µM. The TGI [2] was 2.95 µM, the GI50 [3] was 1.83 µM and the TGI [3] was 3.27 µM. The GI50 [4] was 1.64 µM, the TGI [4] was 3.22 µM and the GI50 [6] was 1.67 µM. The TGI [6] was 3.06 µM, the GI50 [7] was 1.7 µM and the TGI [7] was 4 µM. It also gave a GI50 [8] of 1.36 µM and a TGI [8] of 2.84 µM.

From PubChem BioAssay (NCI)
